From publication PMC9133015 (Nature Communications, 2022)
Where “and” joins values, the source holds several entries; their conditions need not be identical. Equal entries are not always repeated. Where two headings read alike, the source gives them in different places.

Key:
Assay in all cases: Kinase inhibitor specificity profiling (Reaction Biology Corporation)
Assay type in all cases: biochemical
Set-up in all cases: % Enzyme Activity (relative to DMSO controls): concentration or dose not given beside the values
[1] = biological target: T1, panel of 370 protein kinases (Homo sapiens, UniProt P51955); conditions: 2 h, kinase NEK2; read-out: % Enzyme Activity (relative to DMSO controls)
T1 construct: purchased Reaction Biology Corporation (assay service)

[2] = biological target: T2, panel of 370 protein kinases (Homo sapiens, UniProt Q05655); conditions: 2 h, kinase PKCd; read-out: % Enzyme Activity (relative to DMSO controls)
T2 construct: purchased Reaction Biology Corporation (assay service)

[3] = biological target: T3, panel of 370 protein kinases (Homo sapiens, UniProt O75914); conditions: 2 h, kinase PAK3; read-out: % Enzyme Activity (relative to DMSO controls)
T3 construct: purchased Reaction Biology Corporation (assay service)
T3 sequence (O75914 whole entry): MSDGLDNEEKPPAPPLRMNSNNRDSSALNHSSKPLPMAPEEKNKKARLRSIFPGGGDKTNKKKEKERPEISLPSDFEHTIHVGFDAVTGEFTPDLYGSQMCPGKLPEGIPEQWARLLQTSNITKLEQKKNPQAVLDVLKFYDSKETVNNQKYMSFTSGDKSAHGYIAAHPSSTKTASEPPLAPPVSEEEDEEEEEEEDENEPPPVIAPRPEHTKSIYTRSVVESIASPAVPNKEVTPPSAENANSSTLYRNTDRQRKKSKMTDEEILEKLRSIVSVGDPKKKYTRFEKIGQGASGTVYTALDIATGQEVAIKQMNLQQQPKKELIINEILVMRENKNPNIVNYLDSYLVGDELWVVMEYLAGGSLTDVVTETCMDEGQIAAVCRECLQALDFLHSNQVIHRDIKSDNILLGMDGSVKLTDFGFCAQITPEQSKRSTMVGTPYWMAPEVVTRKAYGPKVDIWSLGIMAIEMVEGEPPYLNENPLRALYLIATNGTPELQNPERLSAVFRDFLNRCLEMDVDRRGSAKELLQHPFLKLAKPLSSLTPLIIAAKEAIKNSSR

[4] = biological target: T4, panel of 370 protein kinases (Homo sapiens, UniProt Q13627); conditions: 2 h, kinase DYRK1/DYRK1A; read-out: % Enzyme Activity (relative to DMSO controls)
T4 construct: purchased Reaction Biology Corporation (assay service)

[5] = biological target: T5, panel of 370 protein kinases (Homo sapiens, UniProt P20794); conditions: 2 h, kinase MAK; read-out: % Enzyme Activity (relative to DMSO controls)
T5 construct: purchased Reaction Biology Corporation (assay service)

[6] = biological target: T6, panel of 370 protein kinases (Homo sapiens, UniProt Q13555); conditions: 2 h, kinase CAMK2g; read-out: % Enzyme Activity (relative to DMSO controls)
T6 construct: purchased Reaction Biology Corporation (assay service)
T6 sequence (Q13555 whole entry): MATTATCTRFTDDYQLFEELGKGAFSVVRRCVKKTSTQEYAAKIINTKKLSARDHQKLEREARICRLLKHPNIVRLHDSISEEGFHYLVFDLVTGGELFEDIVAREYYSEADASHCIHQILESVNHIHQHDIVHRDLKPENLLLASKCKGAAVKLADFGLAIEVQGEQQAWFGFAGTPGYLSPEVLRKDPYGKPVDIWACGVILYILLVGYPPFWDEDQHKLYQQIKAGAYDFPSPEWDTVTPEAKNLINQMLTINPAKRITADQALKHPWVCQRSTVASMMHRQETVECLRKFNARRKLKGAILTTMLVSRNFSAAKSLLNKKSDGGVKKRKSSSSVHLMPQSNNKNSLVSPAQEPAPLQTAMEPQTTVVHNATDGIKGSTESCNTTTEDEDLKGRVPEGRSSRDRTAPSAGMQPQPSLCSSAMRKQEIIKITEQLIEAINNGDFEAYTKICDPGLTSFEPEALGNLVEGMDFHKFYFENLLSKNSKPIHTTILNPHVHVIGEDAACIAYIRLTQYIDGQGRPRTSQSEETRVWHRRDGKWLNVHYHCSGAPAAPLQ

[7] = biological target: T7, panel of 370 protein kinases (Homo sapiens, UniProt Q9BWU1); conditions: kinase CDK19/cyclin C
T7 construct: purchased Reaction Biology Corporation (assay service)
T7 sequence (Q9BWU1 whole entry): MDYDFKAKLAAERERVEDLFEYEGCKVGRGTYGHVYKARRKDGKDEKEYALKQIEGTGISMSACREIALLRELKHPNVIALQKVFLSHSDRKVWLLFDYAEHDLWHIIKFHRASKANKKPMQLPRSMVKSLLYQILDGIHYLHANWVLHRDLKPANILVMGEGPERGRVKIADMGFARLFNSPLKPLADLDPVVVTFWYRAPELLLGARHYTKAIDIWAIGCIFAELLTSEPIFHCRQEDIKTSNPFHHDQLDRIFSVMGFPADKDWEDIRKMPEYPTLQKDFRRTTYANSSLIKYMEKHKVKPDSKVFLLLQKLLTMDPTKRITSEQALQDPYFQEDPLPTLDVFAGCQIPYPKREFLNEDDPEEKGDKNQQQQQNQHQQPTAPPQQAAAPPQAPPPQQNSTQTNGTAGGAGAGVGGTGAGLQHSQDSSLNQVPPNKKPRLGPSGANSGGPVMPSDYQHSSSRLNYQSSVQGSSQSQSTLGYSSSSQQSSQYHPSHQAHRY

[8] = biological target: T8, panel of 370 protein kinases (Homo sapiens, UniProt Q9HBY8); conditions: 2 h, kinase SGK2; read-out: % Enzyme Activity (relative to DMSO controls)
T8 construct: purchased Reaction Biology Corporation (assay service)

[9] = biological target: T9, panel of 370 protein kinases (Homo sapiens, UniProt P28482); conditions: 2 h, kinase ERK2/MAPK1; read-out: % Enzyme Activity (relative to DMSO controls)
T9 construct: purchased Reaction Biology Corporation (assay service)

[10] = biological target: T10, panel of 370 protein kinases (Homo sapiens, UniProt Q8NE63); conditions: 2 h, kinase HIPK4; read-out: % Enzyme Activity (relative to DMSO controls)
T10 construct: purchased Reaction Biology Corporation (assay service)

[11] = biological target: T11, panel of 370 protein kinases (Homo sapiens, UniProt P15056); conditions: 2 h, kinase BRAF; read-out: % Enzyme Activity (relative to DMSO controls)
T11 construct: purchased Reaction Biology Corporation (assay service)

[12] = biological target: T12, panel of 370 protein kinases (Homo sapiens, UniProt Q9NWZ3); conditions: kinase IRAK4
T12 construct: purchased Reaction Biology Corporation (assay service)
T12 sequence (Q9NWZ3 whole entry): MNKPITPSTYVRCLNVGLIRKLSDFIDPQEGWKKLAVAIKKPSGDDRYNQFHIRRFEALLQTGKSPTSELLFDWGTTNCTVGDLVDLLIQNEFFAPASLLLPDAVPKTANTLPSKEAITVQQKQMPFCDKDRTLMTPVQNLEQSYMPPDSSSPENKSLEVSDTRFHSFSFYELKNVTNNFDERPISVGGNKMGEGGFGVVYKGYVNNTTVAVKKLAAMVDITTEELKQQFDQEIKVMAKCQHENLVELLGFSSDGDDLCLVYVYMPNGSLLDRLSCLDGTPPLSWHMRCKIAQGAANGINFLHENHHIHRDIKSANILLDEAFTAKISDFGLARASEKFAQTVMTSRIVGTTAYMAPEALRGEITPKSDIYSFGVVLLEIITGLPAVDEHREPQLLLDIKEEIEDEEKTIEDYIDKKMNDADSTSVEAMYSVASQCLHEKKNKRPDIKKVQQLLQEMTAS

[13] = biological target: T13, panel of 370 protein kinases (Homo sapiens, UniProt O14733); conditions: kinase MKK7
T13 construct: purchased Reaction Biology Corporation (assay service)
T13 sequence (O14733 whole entry): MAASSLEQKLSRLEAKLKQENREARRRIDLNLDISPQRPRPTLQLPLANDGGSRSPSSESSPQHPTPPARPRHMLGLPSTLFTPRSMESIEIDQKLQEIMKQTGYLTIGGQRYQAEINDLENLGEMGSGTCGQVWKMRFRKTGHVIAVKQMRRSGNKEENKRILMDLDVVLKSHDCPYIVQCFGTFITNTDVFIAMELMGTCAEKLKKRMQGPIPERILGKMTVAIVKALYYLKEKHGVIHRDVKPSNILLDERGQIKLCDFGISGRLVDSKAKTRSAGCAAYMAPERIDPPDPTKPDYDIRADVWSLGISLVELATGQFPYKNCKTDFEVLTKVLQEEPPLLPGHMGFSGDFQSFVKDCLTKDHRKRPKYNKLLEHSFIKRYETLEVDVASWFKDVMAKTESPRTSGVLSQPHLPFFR

[14] = biological target: T14, panel of 370 protein kinases (Homo sapiens, UniProt O00238); conditions: 2 h, kinase ALK6/BMPR1B; read-out: % Enzyme Activity (relative to DMSO controls)
T14 construct: purchased Reaction Biology Corporation (assay service)

[15] = biological target: T15, panel of 370 protein kinases (Homo sapiens, UniProt Q9UEE5); conditions: 2 h, kinase DRAK1/STK17A; read-out: % Enzyme Activity (relative to DMSO controls)
T15 construct: purchased Reaction Biology Corporation (assay service)

[16] = biological target: T16, panel of 370 protein kinases (Homo sapiens, UniProt Q14164); conditions: 2 h, kinase IKKe/IKBKE; read-out: % Enzyme Activity (relative to DMSO controls)
T16 construct: purchased Reaction Biology Corporation (assay service)

[17] = biological target: T17, panel of 370 protein kinases (Homo sapiens, UniProt Q8N752); conditions: 2 h, kinase CK1a1L; read-out: % Enzyme Activity (relative to DMSO controls)
T17 construct: purchased Reaction Biology Corporation (assay service)

[18] = biological target: T18, panel of 370 protein kinases (Homo sapiens, UniProt P29597); conditions: kinase TYK2
T18 construct: purchased Reaction Biology Corporation (assay service)
T18 sequence (P29597 whole entry): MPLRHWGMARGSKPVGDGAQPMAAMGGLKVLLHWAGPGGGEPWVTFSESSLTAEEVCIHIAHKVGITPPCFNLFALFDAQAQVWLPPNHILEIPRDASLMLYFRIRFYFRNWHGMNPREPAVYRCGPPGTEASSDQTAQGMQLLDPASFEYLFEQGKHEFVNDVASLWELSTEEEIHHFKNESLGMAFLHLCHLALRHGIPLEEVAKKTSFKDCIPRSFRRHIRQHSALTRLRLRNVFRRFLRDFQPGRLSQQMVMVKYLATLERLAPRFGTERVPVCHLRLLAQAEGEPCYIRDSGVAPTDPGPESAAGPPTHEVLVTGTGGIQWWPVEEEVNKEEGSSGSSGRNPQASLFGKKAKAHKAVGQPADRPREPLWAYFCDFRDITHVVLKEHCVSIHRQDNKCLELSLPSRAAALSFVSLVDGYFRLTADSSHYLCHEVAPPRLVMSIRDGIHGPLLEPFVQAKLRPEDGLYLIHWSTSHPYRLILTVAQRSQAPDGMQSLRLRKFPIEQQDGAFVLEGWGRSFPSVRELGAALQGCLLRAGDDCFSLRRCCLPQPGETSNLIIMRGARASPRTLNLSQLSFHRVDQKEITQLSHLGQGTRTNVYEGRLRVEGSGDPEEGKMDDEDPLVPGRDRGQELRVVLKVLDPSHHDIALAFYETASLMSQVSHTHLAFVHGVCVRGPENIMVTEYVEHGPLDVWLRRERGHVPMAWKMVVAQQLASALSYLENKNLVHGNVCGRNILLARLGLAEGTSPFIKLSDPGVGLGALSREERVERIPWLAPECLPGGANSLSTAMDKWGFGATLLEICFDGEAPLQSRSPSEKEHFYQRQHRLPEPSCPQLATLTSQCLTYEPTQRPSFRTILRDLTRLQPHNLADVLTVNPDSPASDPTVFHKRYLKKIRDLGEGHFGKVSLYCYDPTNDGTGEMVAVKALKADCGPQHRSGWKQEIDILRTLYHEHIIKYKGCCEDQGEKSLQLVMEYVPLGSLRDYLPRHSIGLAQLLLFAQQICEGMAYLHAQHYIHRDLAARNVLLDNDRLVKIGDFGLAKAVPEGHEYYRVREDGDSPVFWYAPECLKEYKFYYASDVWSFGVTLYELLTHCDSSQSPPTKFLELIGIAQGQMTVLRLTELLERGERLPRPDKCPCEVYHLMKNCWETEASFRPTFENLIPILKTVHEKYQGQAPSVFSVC

[19] = biological target: T19, panel of 370 protein kinases (Homo sapiens, UniProt Q9UHD2); conditions: 2 h, kinase TBK1; read-out: % Enzyme Activity (relative to DMSO controls)
T19 construct: purchased Reaction Biology Corporation (assay service)

[20] = biological target: T20, panel of 370 protein kinases (Homo sapiens, UniProt P50750); conditions: 2 h, read-out: % Enzyme Activity (relative to DMSO controls)
T20 construct: purchased Reaction Biology Corporation (assay service)
T20 sequence (P50750 whole entry): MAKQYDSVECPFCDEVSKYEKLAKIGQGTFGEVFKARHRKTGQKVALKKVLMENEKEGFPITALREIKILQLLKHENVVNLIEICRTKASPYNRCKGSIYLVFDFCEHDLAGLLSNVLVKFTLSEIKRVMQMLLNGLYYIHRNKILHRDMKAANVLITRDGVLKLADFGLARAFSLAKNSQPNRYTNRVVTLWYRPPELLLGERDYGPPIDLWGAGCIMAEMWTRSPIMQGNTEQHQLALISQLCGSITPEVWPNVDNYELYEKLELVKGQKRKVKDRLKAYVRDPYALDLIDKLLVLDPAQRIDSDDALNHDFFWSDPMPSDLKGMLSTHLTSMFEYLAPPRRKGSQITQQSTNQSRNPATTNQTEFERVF

[21] = biological target: T21, panel of 370 protein kinases (Homo sapiens, UniProt Q9NY57); conditions: 2 h, kinase STK32B/YANK2; read-out: % Enzyme Activity (relative to DMSO controls)
T21 construct: purchased Reaction Biology Corporation (assay service)

[22] = biological target: T22, panel of 370 protein kinases (Homo sapiens, UniProt O15075); conditions: kinase DCAMKL1
T22 construct: purchased Reaction Biology Corporation (assay service)
T22 sequence (O15075 whole entry): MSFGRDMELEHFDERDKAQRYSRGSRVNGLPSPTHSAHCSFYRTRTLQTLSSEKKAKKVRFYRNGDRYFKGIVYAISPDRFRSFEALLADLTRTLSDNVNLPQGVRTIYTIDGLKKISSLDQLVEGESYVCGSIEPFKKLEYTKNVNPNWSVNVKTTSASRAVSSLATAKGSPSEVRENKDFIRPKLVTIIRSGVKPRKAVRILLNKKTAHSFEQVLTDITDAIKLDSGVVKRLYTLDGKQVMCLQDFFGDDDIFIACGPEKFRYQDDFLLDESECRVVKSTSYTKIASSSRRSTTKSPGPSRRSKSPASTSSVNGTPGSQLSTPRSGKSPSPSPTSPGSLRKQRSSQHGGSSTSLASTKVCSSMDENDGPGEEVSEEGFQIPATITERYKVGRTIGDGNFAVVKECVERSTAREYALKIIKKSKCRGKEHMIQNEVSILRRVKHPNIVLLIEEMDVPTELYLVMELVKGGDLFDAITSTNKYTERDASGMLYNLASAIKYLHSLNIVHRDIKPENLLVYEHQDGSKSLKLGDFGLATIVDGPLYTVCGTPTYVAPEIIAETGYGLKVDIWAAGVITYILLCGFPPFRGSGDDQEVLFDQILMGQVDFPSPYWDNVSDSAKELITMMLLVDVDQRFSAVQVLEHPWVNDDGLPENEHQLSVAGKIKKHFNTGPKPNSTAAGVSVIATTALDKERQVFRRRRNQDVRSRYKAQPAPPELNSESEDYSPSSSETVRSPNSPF

CCN1CCN(C(=O)c2ccc(Nc3ncc(F)c(-c4ccc5nc(N(C)C)sc5c4)n3)nc2)CC1 [YK-2-69]
remaining activity at 1 µM [1]: 94.2% | remaining activity at 1 µM [2]: 70.9% | remaining activity at 1 µM [3]: 160% | remaining activity at 1 µM [4]: 61.3% | remaining activity at 1 µM [5]: 71.7% | remaining activity at 1 µM [6]: 86% | % Enzyme Activity (relative to DMSO controls) [7]: 59.42% and 58.05% | remaining activity at 1 µM [8]: 97.5% | remaining activity at 1 µM [9]: 101% | remaining activity at 1 µM [10]: 56.5% | remaining activity at 1 µM [11]: 95.2% | % Enzyme Activity (relative to DMSO controls) [12]: 99.99% and 96.94% | % Enzyme Activity (relative to DMSO controls) [13]: 97.65% and 97.50% | remaining activity at 1 µM [14]: 90.5% | remaining activity at 1 µM [15]: 59% | remaining activity at 1 µM [16]: 98.5% | remaining activity at 1 µM [17]: 103% | % Enzyme Activity (relative to DMSO controls) [18]: 89.12% and 88.94% | remaining activity at 1 µM [19]: 93.1% | remaining activity at 1 µM ([20]; kinase CDK9/CYCLIN K): 96.3% | remaining activity at 1 µM ([20]; kinase CDK9/cyclin T1): 90.8% | remaining activity at 1 µM ([20]; kinase CDK9/cyclin T2): 96.8% | remaining activity at 1 µM [21]: 103% | % Enzyme Activity (relative to DMSO controls) [22]: 112.23% and 104.96%
